This is an account of results in US20100130436A1, “CO-ADMINISTRATION OF RANOLAZINE AND CARDIAC GLYCOSIDES” (priority 2008, published 2010).

In data set [1] the test system is cardiac tissues. Conditions: Heers et al. 1991; Damiano et al. 1991; cited from earlier work.
The subject of data set [2] is [Na+]i of guinea pig isolated heart. Briefly: 23Na-NMR spectroscopy of intracellular sodium concentration in isolated heart. The settings on record: for [Na+]i: absence of ranolazine, n=4.
The test system of data set [3] is guinea pig isolated, perfused heart. Briefly: 31P-NMR spectroscopy of energy-related phosphates and pHi in isolated heart.
Data set [4] relates to Na+, K+-ATPase. Briefly: Na+,K+-ATPase activity assay by 86Rb+ uptake of A7r5 cells. Format: cell-based. Conditions: 1 mmol/L ouabain, absence of ranolazine. From the text: The activity of Na^+, K^+-ATPase was inhibited 77% by 1 mmol/L ouabain in the absence (control) of ranolazine. Values of ^86Rb^+ uptake were 91±11, 98±2.5, and 93±8.3% of control (activity in presence of ouabain) in the presence of 3, 10, and 30 μmol/L ranolazine, respectively.

The subject of data set [5] is late sodium current (late INa). Briefly: Whole-cell patch-clamp of late INa in isolated ventricular myocytes. The class given is cell-based, guinea pig.
The subject of data set [6] is guinea pig isolated, perfused heart.
In data set [7] the test system is cat papillary muscles. Conditions: 1.37 μmol/L ouabain, Lee et al. 1960; cited from earlier work.
[8] abbreviates: 0.75 μmol/L ouabain for 60 min, n=5.
Where [9] appears, read: Example 1, ouabain-alone treated hearts.
Setting [10] is: after ouabain treatment (discussion).
The mark [11] stands for this setting: FIG. 1, after ouabain without ranolazine.

On to `CN(c1nc2ccccc2s1)C1CCN(CCCCOc2ccc(F)cc2)CC1` [R56865], for which, in data set [1], the “sodium and calcium overload during exposure to cardiac glycosides” value was “reduce sodium and calcium overload”.

Turning to `C[C@@H]1O[C@@H](O[C@H]2C[C@@H](O)[C@]3(CO)[C@H]4[C@H](O)C[C@]5(C)[C@@H](C6=CC(=O)OC6)CC[C@]5(O)[C@@H]4CC[C@]3(O)C2)[C@H](O)[C@H](O)[C@H]1O` [ouabain], in data set [2] (0.75 μmol/L ouabain for 40 min), the “[Na+]i” value is 14.9 ± 0.9 mmol/L. In data set [2] (0.75 μmol/L ouabain for 76 min), the “[Na+]i” value turned out to be 18.1 ± 0.9 mmol/L. Besides, the “[Na+]i plateau level” value in data set [2] (1.3 μmol/L ouabain alone, n=6) was 22.9 ± 0.7 mmol/L. Moreover, in data set [2] (1.3 μmol/L ouabain, at 60 min), the “increase of [Na+]i” value is listed as 3.3 -fold. Also, the “[Na+]i after washout of ouabain for 20 min” value in data set [2] (after 1.3 μmol/L ouabain, n=5) is 10.3 ± 1.8 mmol/L. Besides, in data set [3] (setting [8]), the “[ATP] decline” value came out at 55±6%, the “[PCr] decline” value turned out to be 56±7% and the “[Pi] increase” value is reported as 3.7±0.9 -fold. Besides, the “[Pi] before washout” value in data set [3] (0.75 μmol/L ouabain for 60 min, control 2.9±0.2) turned out to be 9.1 ± 0.5 mmol/L. The pHi in data set [3] (0.75 μmol/L ouabain for 60 min, control 7.15±0.01) turned out to be 7.07±0.01. Further, the “decrease of |ΔG~ATP|” value in data set [3] (0.75 μmol/L ouabain for 60 min, control 59.2 kJ/mol) is 1.72 ± 0.287 kcal/mol. In data set [3] (setting [9]), the “ATP content reduced by” value is 64%, the “intracellular inorganic phosphate (Pi) increase” value was determined as 4.8 fold and the “phosphocreatine (PCr) content reduced by” value amounted to 59%. In data set [3] (Example 1, ouabain-alone treated hearts, baseline 7.14), this molecule gave a pH of 7.07. In addition, in data set [3] (after 0.75 μmol/L ouabain), the “[Pi] after 20-min washout” value stood at 5.8 ± 0.4 mmol/L and the “pHi after 20-min washout” value is given as 7.15. Further, in data set [3] (setting [10]), the “loss of [ATP] and [PCr]” value is listed as “over 50%”; the “reduction of the value of |ΔG~ATP|” value worked out at 1.7 kcal/mol. Besides, in data set [4], the “activity of Na+, K+-ATPase inhibited” value was 77%. In addition, the “integrated late INa” value in data set [5] (3 to 5-min exposure to ouabain 1 μmol/L, from 23.5±4.9, n=8) turned out to be 99.6±15.2 pC/pF. Also, the “late INa” value in data set [5] (ouabain alone 1 μmol/L, 5-10 min, from 21±2, n=6) was 84±12 pC/pF. Also, the “increase of late INa” value in data set [5] (ouabain alone 1 μmol/L, 5-10 min, n=6) is on record as 318±74%. Moreover, the “hearts with episodes of cardiac standstill” value in data set [6] (0.75 μmol/L ouabain for 60 min, alone) is recorded as 11 out of 13. In data set [6] (0.75 μmol/L ouabain, from 96±2 mmHg, n=13), the LVSP stood at 148±6 mmHg. Moreover, the RPP in data set [6] (0.75 μmol/L ouabain, from 26,497±664 mmHg/min, n=13) is given as 40,676±1159 mmHg/min. Moreover, in data set [6] (0.75 μmol/L ouabain, n=13), the “increase of LVSP” value turned out to be 55±5% and the “increase of RPP” value is given as 59±6%. Besides, in data set [6] (setting [11]), the “diastolic function (pressure) during 20 min wash out” value is recorded as 34 mmHg and the “systolic pressure during 20 min wash out” value worked out at 70 mmHg. In data set [6] (FIG. 1 representative tracing, ouabain without ranolazine, baseline 101 mmHg), the “Left ventricular systolic pressure, maximum upon infusion with ouabain” value was 140 mmHg. Besides, the “EDP during toxic effect of ouabain” value in data set [6] (FIG. 1 representative tracing, ouabain without ranolazine, increase from 8 mmHg) is 45 mmHg. Besides, the developed pressure entry in data set [6] (FIG. 7, ouabain-only treated hearts) is reported as “significantly decreased”. Also, in data set [6] (ouabain alone, control 89.1±1.0 mmHg), the “LVDevP at the end of washout” value is 36.4±5.9 mmHg. Moreover, in data set [7], the “reduction of [ATP]” value was 42% and the “reduction of [PCr]” value is given as 66%.
